What was measured:
[1] = Selectivity index, ratio of GI50 for cytotoxicity against human WI-38 cells to GI50 for antiproliferative activity against triple-negative human MDA-MB-231 cells; format: toxicity, cell-based; details: WI-38 cells versus MDA-MB-231 cells, read-out: RatioGI50
[2] = Cytotoxicity against human WI-38 cells assessed as cell growth inhibition incubated for 72 hrs by CCK8 assay; format: cell-based
[3] = target: Histone deacetylase 1 (Homo sapiens, UniProt Q13547); experiment: Inhibition of recombinant human C-terminal FLAG/His-tagged HDAC1 (1 to 482 residues) expressed in Sf9 insect cells using fluorometric substrate measured after 60 mins by FRET assay
[4] = target: T1, Histone deacetylase 8 (Homo sapiens, UniProt Q9BY41); experiment: Inhibition of recombinant human full length C-terminal His-tagged HDAC8 expressed in baculovirus infected Sf9 insect cells using fluorometric substrate measured after 60 mins by FRET assay
T1 sequence (Q9BY41 whole entry): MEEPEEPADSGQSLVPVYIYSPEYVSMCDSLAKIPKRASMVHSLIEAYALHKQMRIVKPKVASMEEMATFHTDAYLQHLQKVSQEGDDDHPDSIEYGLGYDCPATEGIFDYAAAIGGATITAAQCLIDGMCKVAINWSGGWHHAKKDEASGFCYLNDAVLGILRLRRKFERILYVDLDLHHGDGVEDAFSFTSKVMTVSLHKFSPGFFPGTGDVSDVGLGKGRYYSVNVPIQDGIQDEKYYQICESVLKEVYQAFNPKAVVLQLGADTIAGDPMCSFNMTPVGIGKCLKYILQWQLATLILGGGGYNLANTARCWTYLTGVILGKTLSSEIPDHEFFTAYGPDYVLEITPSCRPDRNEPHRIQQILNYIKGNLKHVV

[5] = target: Histone deacetylase 2 (Homo sapiens, UniProt Q92769); experiment: biochemical; format: cell-based, Sf9
Description: Inhibition of recombinant human full length C-terminal His- tagged HDAC2 (1 to 488 residues) expressed in Sf9 insect cells using fluorometric substrate measured after 60 mins by FRET assay

[6] = target: T2, Polyamine deacetylase HDAC10 (Homo sapiens, UniProt Q969S8); experiment: Inhibition of recombinant human N-terminal FLAG tagged HDAC10 (2 to 631 residues) expressed in baculovirus infected Sf9 insect cells using fluorogenic substrate measured after 60 mins by FRET assay
T2 sequence (Q969S8 whole entry): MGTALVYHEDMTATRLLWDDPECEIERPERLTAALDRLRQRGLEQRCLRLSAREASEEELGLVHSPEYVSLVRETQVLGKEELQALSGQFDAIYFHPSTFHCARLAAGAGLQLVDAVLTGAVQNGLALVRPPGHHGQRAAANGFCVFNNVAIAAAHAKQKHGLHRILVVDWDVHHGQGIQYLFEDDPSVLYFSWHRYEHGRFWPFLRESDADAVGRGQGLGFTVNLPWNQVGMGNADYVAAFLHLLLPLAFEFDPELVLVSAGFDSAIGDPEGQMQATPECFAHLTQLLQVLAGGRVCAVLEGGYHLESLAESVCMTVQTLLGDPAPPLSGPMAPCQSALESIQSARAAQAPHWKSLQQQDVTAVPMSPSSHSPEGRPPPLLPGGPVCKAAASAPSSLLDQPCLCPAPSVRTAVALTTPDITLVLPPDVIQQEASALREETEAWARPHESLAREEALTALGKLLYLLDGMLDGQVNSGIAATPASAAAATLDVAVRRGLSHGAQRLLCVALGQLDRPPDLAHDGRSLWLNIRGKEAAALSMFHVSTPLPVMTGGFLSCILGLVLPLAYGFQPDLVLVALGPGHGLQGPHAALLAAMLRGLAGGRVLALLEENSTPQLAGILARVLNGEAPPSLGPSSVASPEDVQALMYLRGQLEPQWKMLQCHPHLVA

[7] = tested on: MDA-MB-231; experiment: Antiproliferative activity against triple-negative human MDA-MB-231 cells assessed as cell growth inhibition incubated for 72 hrs by CCK8 assay; format: functional
[8] = target: T3, Protein deacetylase HDAC6 (Homo sapiens, UniProt Q9UBN7); experiment: Inhibition of recombinant human full length N-terminal GST-tagged HDAC6 expressed in Sf9 cells using fluorogenic substrate measured after 60 mins by FRET assay
T3 sequence (Q9UBN7 whole entry): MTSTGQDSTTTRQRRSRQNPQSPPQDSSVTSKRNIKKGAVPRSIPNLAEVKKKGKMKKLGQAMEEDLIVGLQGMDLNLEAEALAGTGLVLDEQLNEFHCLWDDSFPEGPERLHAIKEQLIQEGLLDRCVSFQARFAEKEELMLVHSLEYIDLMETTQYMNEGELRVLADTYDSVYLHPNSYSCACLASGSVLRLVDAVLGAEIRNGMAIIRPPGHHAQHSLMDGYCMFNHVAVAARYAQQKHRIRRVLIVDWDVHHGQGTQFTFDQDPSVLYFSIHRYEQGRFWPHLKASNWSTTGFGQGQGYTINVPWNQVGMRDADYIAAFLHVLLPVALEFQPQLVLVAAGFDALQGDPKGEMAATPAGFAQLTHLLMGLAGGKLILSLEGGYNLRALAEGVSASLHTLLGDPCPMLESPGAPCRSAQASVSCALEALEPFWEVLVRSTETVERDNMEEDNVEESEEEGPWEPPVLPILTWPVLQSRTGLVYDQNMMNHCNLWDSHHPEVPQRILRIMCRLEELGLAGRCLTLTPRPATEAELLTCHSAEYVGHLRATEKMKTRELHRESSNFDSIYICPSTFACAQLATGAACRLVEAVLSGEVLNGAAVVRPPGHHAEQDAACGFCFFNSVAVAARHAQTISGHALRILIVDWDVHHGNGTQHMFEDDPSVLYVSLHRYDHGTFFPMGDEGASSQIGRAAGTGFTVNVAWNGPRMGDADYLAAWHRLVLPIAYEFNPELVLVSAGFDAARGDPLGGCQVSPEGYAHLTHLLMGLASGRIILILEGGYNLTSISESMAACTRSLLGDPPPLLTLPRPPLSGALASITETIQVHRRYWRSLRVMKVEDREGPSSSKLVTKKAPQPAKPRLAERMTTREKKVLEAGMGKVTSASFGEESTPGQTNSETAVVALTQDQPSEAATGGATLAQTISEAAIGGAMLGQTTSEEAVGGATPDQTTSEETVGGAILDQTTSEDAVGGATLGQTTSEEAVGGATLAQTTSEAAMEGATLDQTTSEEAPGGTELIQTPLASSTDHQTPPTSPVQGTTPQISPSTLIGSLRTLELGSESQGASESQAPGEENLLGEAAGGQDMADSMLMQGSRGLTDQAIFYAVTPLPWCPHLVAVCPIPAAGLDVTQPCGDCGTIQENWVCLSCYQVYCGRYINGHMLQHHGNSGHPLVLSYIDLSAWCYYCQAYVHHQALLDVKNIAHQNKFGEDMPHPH

[9] = target: Histone deacetylase 3/Nuclear receptor corepressor 2 (HDAC3/NCoR2) (Homo sapiens, UniProt O15379); experiment: Inhibition of C-terminal His-tagged recombinant human HDAC3 (1 to 428 residues)/N-terminal GST-tagged recombinant human NCoR2 (395 to 489 residues) co-expressed in baculovirus infected Sf9 cells using fluorometric substrate measured after 60 mins by FRET assay
[10] = Biodistribution in tumor of athymic nude mouse xenografted with human MDA-MB-231 cells assessed as fluorescence intensity at 3 nmol, iv measured 48 hrs post infection by epifluorescence analysis; format: ADME, organism-based, Neoplasm; details: in vivo
[11] = Drug uptake in tumor of athymic nude mouse xenografted with human MDA-MB-231 cells at 3 nmol, iv pretreated with (12Z,7S,10S)-7- (4-Aminobutyl)-4-ethylidene-10-((E)-4-(heptyldisulfaneyl)but-1-en-1-yl)-9-oxa-3,6,13-triaza-1(4,2)-thiazolacyclotetradecaphane-2,5,8,12-tetraone followed by compound addition and measured up to 48 hrs by epifluorescence analysis; format: ADME, organism-based, Neoplasm; details: in vivo
[12] = Biodistribution in kidney of athymic nude mouse xenografted with human MDA-MB-231 cells assessed as fluorescence intensity at 3 nmol, iv measured 48 hrs post infection by epifluorescence analysis; format: ADME, organism-based; details: in vivo
[13] = Drug uptake in tumor of athymic nude mouse xenografted with human MDA-MB-231 cells at 3 nmol, iv measured 4 hrs post infection by epifluorescence analysis; format: ADME, organism-based, Neoplasm; details: in vivo
[14] = Drug uptake in tumor of athymic nude mouse xenografted with human MDA-MB-231 cells at 3 nmol, iv pretreated with SAHA for 3 days followed by compound addition and measured up to 48 hrs by epifluorescence analysis; format: ADME, organism-based, Neoplasm; details: in vivo
[15] = target: Histone deacetylase; experiment: Inhibition of recombinant HDAC in human HeLa nuclear extracts using fluorogenic substrate measured after 60 mins by FRET assay
[16] = (§1) Biodistribution in tumor of athymic nude mouse xenografted with human MDA-MB-231 cells assessed as fluorescence intensity at 3 nmol, iv pretreated with SAHA for 3 days followed by compound addition and measured up to 48 hrs by epifluorescence analysis; format: ADME, organism-based, Neoplasm; details: in vivo
[17] = Drug uptake in triple negative human MDA-MB-231 cells overexpressing class 1 HDACs at 1.5 uM in presence of (12Z,7S,10S)-7- (4-Aminobutyl)-4-ethylidene-10-((E)-4-(heptyldisulfaneyl)but-1-en-1-yl)-9-oxa-3,6,13-triaza-1(4,2)-thiazolacyclotetradecaphane-2,5,8,12-tetraone measured after 60 mins by DAPI staining based confocal microscopic analysis; format: ADME, cell-based; details: mda-mb-231, 1 h
[18] = as §1, with “(12Z,7S,10S)-7- (4-Aminobutyl)-4-ethylidene-10-((E)-4-(heptyldisulfaneyl)but-1-en-1-yl)-9-oxa-3,6,13-triaza-1(4,2)-thiazolacyclotetradecaphane-2,5,8,12-tetraone” for “SAHA for 3 days”, “after” for “up to”; format: ADME, organism-based, Neoplasm; details: in vivo
[19] = Drug uptake in tumor of athymic nude mouse xenografted with human MDA-MB-231 cells assessed as reduction in tumor to normal tissue ratio at 3 nmol, iv in presence of (12Z,7S,10S)-7- (4-Aminobutyl)-4-ethylidene-10-((E)-4-(heptyldisulfaneyl)but-1-en-1-yl)-9-oxa-3,6,13-triaza-1(4,2)-thiazolacyclotetradecaphane-2,5,8,12-tetraone measured up to 48 hrs by epifluorescence analysis relative to control; format: ADME, organism-based, Neoplasm; details: in vivo
[20] = Drug distribution in NOD-SCID mouse lung xenografted with triple negative MDA-MB-231 cells at 3 nmol, iv measured 24 hrs post infection by NRI fluorescence imaging analysis; format: ADME, organism-based; details: in vivo
[21] = organism: Homo sapiens; experiment: Selectivity index, ratio of IC50 for inhibition of recombinant HDAC in human HeLa nuclear extracts to IC50 for inhibition of recombinant human C-terminal FLAG/His-tagged HDAC1 (1 to 482 residues) expressed in Sf9 insect cells
[22] = Drug distribution in triple negative human MDA-MB-231 cells expressing class 1 HDACs assessed as accumulation in nucleus by measuring colocalization of Cy5.5 signal measured for 60 mins by DAPI staining based confocal microscopic analysis; format: ADME, cell-based; details: mda-mb-231, 1 h
[23] = Drug distribution in NOD-SCID mouse lung xenografted with triple negative MDA-MB-231 cells assessed as accumulation in metastatic lungs by measuring increase in fluorescence intensity at 3 nmol, iv measured 24 hrs post infection by NRI fluorescence imaging analysis (Rvb= 2.2+/- 0.5 10^9/s/cm2); format: ADME, organism-based; details: in vivo

Chain of Histone deacetylase 1 (Q13547 whole entry, the tested form may be a part): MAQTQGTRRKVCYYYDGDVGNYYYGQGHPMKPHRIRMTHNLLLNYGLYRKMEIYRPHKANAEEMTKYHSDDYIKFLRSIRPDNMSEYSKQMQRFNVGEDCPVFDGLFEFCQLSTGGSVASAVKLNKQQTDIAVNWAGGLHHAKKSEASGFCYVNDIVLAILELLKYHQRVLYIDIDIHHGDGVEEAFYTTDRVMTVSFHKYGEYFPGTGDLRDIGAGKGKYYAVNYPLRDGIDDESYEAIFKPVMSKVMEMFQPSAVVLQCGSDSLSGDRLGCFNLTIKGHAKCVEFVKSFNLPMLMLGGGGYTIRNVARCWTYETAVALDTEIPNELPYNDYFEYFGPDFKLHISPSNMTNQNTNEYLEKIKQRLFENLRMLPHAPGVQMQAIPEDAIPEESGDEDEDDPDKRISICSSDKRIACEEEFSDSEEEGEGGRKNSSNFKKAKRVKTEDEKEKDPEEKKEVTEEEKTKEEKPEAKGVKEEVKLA
Chain of Histone deacetylase 2 (Q92769 whole entry, the tested form may be a part): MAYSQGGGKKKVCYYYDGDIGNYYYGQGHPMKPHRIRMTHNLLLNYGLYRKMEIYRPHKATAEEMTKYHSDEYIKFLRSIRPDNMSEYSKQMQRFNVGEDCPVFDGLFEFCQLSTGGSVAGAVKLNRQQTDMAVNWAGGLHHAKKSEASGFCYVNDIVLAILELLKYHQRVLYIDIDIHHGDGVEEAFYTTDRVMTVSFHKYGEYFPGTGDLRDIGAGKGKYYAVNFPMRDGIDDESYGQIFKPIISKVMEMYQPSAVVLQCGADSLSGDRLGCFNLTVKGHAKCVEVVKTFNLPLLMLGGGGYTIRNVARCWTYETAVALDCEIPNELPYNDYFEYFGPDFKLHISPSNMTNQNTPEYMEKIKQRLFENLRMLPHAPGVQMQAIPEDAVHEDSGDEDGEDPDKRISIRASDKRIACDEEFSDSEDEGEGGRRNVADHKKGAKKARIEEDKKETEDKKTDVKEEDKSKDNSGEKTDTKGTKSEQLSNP
Chain of Histone deacetylase 3/Nuclear receptor corepressor 2 (HDAC3/NCoR2) (O15379 whole entry, the tested form may be a part): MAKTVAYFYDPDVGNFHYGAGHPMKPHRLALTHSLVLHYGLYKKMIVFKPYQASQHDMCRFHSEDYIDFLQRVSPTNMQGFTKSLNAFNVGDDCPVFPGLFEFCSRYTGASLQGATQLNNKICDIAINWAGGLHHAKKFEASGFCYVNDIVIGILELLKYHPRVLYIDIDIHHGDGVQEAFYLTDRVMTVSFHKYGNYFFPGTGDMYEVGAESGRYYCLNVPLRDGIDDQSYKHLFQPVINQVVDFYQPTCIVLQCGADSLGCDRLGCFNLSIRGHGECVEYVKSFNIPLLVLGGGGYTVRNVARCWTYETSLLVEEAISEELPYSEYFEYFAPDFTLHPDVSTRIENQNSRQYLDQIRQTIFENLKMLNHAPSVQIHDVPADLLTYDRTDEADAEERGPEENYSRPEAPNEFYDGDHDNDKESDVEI
Chain of Histone deacetylase 3/Nuclear receptor corepressor 2 (HDAC3/NCoR2) (Q9Y618 whole entry, further chain, the tested form may be a part): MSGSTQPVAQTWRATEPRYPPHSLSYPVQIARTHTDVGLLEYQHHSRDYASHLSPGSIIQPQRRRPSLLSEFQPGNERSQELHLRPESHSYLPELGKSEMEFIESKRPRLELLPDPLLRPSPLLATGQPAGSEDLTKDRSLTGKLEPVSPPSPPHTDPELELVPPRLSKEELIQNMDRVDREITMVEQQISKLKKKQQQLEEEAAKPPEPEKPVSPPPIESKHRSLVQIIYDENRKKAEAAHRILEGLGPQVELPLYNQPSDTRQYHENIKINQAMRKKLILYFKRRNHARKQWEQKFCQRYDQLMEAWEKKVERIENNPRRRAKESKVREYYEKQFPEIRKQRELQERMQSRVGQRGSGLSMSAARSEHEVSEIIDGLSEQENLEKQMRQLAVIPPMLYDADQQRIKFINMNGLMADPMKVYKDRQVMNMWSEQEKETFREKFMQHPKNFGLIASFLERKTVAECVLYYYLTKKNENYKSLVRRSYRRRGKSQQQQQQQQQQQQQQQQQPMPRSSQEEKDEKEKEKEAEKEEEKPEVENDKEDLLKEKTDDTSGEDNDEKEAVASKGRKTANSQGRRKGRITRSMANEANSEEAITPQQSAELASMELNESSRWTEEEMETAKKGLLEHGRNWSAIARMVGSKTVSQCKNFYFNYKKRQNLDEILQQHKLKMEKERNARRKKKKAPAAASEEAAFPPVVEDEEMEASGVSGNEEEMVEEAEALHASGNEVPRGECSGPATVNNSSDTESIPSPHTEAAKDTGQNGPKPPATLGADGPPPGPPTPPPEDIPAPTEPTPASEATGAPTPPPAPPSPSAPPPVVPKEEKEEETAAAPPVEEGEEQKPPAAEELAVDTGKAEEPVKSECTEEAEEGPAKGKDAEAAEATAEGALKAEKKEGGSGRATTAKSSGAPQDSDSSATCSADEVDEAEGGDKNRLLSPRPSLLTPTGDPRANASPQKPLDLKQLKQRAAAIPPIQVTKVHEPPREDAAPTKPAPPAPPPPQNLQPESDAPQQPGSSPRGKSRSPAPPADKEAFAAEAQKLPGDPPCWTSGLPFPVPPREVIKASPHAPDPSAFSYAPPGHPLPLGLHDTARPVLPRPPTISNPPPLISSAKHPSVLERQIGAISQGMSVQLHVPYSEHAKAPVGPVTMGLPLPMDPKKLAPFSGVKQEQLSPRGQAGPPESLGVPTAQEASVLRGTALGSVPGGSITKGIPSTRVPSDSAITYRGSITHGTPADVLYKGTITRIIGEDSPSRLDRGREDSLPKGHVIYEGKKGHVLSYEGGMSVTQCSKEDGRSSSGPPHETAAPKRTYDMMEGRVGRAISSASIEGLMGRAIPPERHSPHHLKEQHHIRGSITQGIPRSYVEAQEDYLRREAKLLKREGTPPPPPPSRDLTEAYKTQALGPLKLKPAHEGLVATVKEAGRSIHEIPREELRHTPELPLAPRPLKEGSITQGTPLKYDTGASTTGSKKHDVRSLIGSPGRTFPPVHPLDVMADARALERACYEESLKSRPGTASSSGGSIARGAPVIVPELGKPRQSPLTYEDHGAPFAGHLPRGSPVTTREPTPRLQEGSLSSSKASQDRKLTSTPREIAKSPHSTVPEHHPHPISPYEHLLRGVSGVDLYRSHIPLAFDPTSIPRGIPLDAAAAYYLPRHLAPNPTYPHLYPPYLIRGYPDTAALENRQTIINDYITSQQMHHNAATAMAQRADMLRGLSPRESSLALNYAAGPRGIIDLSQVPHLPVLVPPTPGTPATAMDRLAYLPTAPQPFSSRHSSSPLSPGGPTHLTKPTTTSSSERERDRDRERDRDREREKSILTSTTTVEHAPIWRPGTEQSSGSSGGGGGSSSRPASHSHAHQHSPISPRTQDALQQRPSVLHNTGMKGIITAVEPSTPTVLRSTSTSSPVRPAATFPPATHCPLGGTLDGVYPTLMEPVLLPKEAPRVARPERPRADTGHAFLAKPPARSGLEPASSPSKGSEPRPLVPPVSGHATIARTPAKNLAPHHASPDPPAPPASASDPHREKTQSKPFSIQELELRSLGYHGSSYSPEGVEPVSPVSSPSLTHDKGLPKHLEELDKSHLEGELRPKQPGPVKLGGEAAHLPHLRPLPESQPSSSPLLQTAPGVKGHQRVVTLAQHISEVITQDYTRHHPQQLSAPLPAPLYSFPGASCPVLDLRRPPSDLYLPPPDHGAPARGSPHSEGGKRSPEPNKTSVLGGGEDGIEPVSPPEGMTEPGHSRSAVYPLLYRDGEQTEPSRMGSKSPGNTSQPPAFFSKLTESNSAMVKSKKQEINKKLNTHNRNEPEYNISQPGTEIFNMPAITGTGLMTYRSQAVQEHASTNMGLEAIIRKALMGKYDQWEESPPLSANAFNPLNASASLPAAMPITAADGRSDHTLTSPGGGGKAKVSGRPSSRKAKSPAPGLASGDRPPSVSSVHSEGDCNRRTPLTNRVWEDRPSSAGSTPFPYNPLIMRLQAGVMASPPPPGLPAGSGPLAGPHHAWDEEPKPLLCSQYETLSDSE

## C/C=C1\NC(=O)[C@H]2CSSCC/C=C/[C@H](CC(=O)N[C@H](C(C)C)C(=O)N2)OC(=O)[C@H](C(C)C)NC1=O [ROMIDEPSIN]
[1]
  selectivity ratio: 3.1
[2]
  GI50 at 72 h: 30.1 nM

## C/C=C1\NC(=O)c2csc(n2)CNC(=O)C[C@@H](/C=C/CCSC(=O)CCCCCCC)OC(=O)[C@H](C(C)C)NC1=O
[3]
  IC50: 3.1 nM
[1]
  selectivity ratio: 32
[4]
  IC50: 3960 nM
[2]
  GI50 at 72 h: 363 nM
[5]
  IC50: 5.3 nM
[6]
  IC50: 37 nM
[7]
  GI50: 11.3 nM
[8]
  IC50: 1810 nM
[9]
  IC50: 8.9 nM

## C/C=C1\NC(=O)c2csc(n2)CNC(=O)C[C@@H](/C=C/CCSSCCCCCCC)OC(=O)[C@H](CCCCNC(=O)CCCCC[N+]2=C(/C=C/C=C/C=C3/N(CC)c4ccc5c(S(=O)(=O)O)cc(S(=O)(=O)O)cc5c4C3(C)C)C(C)(C)c3c2ccc2c(S(=O)(=O)[O-])cc(S(=O)(=O)O)cc32)NC1=O
[3]
  IC50: 8 nM
[10]
  Flu intensity: 3.13 10^9/s/cm2
[11]
  Drug uptake: Not Active
[12]
  Flu intensity: 3.06 10^9/s/cm2
[13]
  Drug uptake: Active
[14]
  Drug uptake: Not Active
[15]
  IC50: 824 nM
[16]
  Flu intensity: 1.33 10^9/s/cm2
[17]
  Drug uptake: Not Active
[18]
  Flu intensity: 1.95 10^9/s/cm2
[19]
  Drug uptake: 70%
[20]
  Drug uptake: Active
[21]
  Ratio IC50: 100
[22]
  Drug uptake: Active
[8]
  IC50: 70 nM
[23]
  Flu intensity: 8 10^9/s/cm2
